# Like-named read-outs stand apart in the source and are kept apart here.
# Legend:
# [1] = pharmacokinetics in serum after single i.p. administration; type: in vivo, rat; details: for Vd/F: read-out: Vz/F; for half-life: read-out: t1/2λz
# Procedure: Standard laboratory food (LSM-B) and filtered water as well as environment enrichment were freely available. Animals were randomly divided into treatment groups using a computer-based random order generator. All of the experiments were performed by two observers unaware of the treatment applied between 9:00 and 14:00 on separate groups of animals.
# Rats were injected with the investigated compounds once (in pharmacokinetic studies) and for 21 days (in behavioral studies), and afterward, behavioral tests were conducted and tissue collection was done, as required. For pharmacokinetic studies, animals were fasted prior to dosing by withholding food but not water overnight. After dosing, the food was withheld for an additional 8 h. All animals were used only once. Animals were handled every day and weighed every other day in the chronic part of the experiment. Procedures involving animals and their care were conducted in accordance with current European Community and Polish legislations on animal experimentation. Additionally, all efforts were made to minimize animals’ suffering and to use only the number of animals necessary to produce reliable scientific data. […] The research program complies with the commonly accepted ‘3Rs’ (replacement and reduction of animals, refinement of experimental conditions, and procedures to minimize the harm to animals).
# Moreover, five tissues (i.e., brain, heart, lungs, kidneys, and liver) were harvested and rinsed with cold saline. Blood was allowed to clot at room temperature for 15–20 min and then centrifuged (3000 rpm for 10 min). The obtained serum and tissues were stored at −80 °C until analysis.
# Peak areas were integrated automatically using an EZChrome Elite v. 3.3.2 software (VWR, Darmstadt, Germany) chromatographic workstation.
# The mobile phase consisting of methanol −10 mM potassium dihydrogen phosphate buffer (pH 4.6) and acetonitrile (51:40:9, v/v/v) was passed under vacuum through a 0.22 μm filter membrane.
# Before analysis, tissue samples were thawed, weighed (200–250 mg), and placed in 5 mL plastic tubes with four volumes (w/v) of PBS (pH 7.4) and homogenized individually using a MICCRA D-1 homogenizer (ART Prozess & Labortechnik GmbH & Co., Germany). Serum (500 μL) or homogenate samples (500 μL) were mixed with an IS solution ((RS)-4-(4-methylpiperazin-1-yl)-6-(1-phenoxypropyl)-1,3,5-triazin-2-amine), 50 ng/mL in methanol. The samples were alkalized with 50 μL of 4 M sodium hydroxide solution, vortex-mixed, and extracted with 1 mL of ethyl acetate/hexane (30/70, v/v) mixture on a shaker (VXR Vibrax, IKA, Germany) for 20 min. After centrifugation (Eppendorf, Mini Spin Plus, Bionovo, Poland), the organic layers were transferred into new Eppendorf tubes containing 100 μL of methanol and 0.1 M sulfuric acid (10/90, v/v) mixture. Then, the samples were shaken and centrifuged again. Finally, 60–90 μL of each acidic layer was injected into the HPLC system.
# The method was validated according to the procedures and acceptance criteria recommended for bioanalytical method validation for pharmacokinetic studies.[45]
# The serum concentration–time data were analyzed by a noncompartmental method using the WinNonlin 8.2 nonlinear least-squares regression program (Pharsight Corporation, a Certara Company, Princeton, NJ, USA) to obtain pharmacokinetic parameters. […] The area under the serum concentration–time curve from time zero to time t (AUC0–t), where t is the time of the last measurable sample, was calculated according to the linear trapezoidal rule. The AUC from time zero to infinity (AUC0–∞) was estimated as AUC0–t + Ct/λz, where Ct was the serum concentration of the last measurable sample. The clearance (CL/F) was calculated as D/AUC0–∞, and the volume of distribution based on the terminal phase (Vz/F) was estimated as D/(λz·AUC0–∞), where F is the bioavailability of intraperitoneal administration.
# ABCB1 = test system: ABCB1; design: method as in PMID 35228010; details: previous evidence; cited from earlier work
# [2] = 1.0 mg/kg i.p., single, 1 mg/kg
# [3] = male, Wistar, rat, ip, 0.3 mg/kg i.p., single
# [4] = male, Wistar, rat, ip, 0.3 mg/kg, 0.3 mg/kg i.p., single
# [5] = male, Wistar, rat, ip, 1.0 mg/kg i.p., single
# [6] = male, Wistar, rat, ip, 1 mg/kg, 1.0 mg/kg i.p., single
smiles,measurement,setting,value
"CN1CCN(c2nc(N)nc(C(C)(C)Sc3ccc4ccccc4c3)n2)CC1 [WA-22, 4-(4-methylpiperazin-1-yl)-6-(2-(naphthalen-2-ylthio)propan-2-yl)-1,3,5-triazin-2-amine]",Cmax after 1.0 mg/kg i.p. in relation to 0.3 mg/kg i.p.,[1],3.8 fold
same,Cmax,"[1]; 0.3 mg/kg i.p., single, 0.3 mg/kg",18.65 ± 1.87 ng/mL
same,Cmax,[1]; [2],71.05 ± 26.52 ng/mL
same,Vz/F,[1]; [2],75.43 ± 28.17 L/kg
same,t1/2λz,[1]; [2],2.8115 ± 0.7785 h
same,AUC(0-t),[1]; [3],14 ng·h/mL
same,CL/F,[1]; [3],255 mL/min/kg
same,MRT,[1]; [3],1.61 h
same,Tmax,[1]; [3],5 min
same,Cmax,"[1]; male, Wistar, rat, ip, 0.3 mg/kg, 0.3 mg/kg i.p., single, read-out: Cmax",18.7 ng/mL
same,Vd/F,[1]; [4],28.1 ± 6.41 L/kg
same,half-life,[1]; [4],1.29 ± 0.349 h
same,AUC(0-inf),"[1]; male, Wistar, rat, ip, 1 mg/kg i.p., single",55.9 ng·h/mL
same,AUC(0-t),[1]; [5],42.3 ng·h/mL
same,CL/F,[1]; [5],313 mL/min/kg
same,MRT,[1]; [5],2.7 h
same,Tmax,[1]; [5],5 min
same,Cmax,"[1]; male, Wistar, rat, ip, 1 mg/kg, 1.0 mg/kg i.p., single, read-out: Cmax",71.1 ng/mL
same,Vd/F,[1]; [6],75.4 L/kg
same,half-life,[1]; [6],2.81 h
same,ABCB1 inhibition,ABCB1,potent inhibitor of ABCB1

# Reference: PMC11926880, “Procognitive Potential of Neuroprotective Triazine 5-HT6 Receptor Antagonists Tested on Chronic Activity In Vivo in Rats: Computer-Aided Insight into the Role of Chalcogen-Differences on the Pharmacological Profile” (ACS Chemical Neuroscience, 2025)
